Assay results reported in patent publication EP4215193A1, “METHOD FOR THE CONSERVATIVE TREATMENT OF ENDOMETRIAL POLYPS” (Kiselev, Vsevolod Ivanovich, priority 2020, dated 2022).

How the values were obtained:
[1] = Clinical comparison of efficacy of DIM + βCD complex and crystalline DIM taken orally; assay type: in vivo; conditions: equal dosages, all studied groups of patients
From the text: Clinical studies have compared the efficacy of the water-soluble DIM + βCD complex and crystalline 3,3'-diindolylmethane in equal dosages when taken orally. […]

[2] = tested on: pathological neoangiogenesis; conditions: subcutaneously, 5 mg / kg, daily; cited from earlier work

| Compound | clinical response [1] | inhibition of pathological neoangiogenesis [2] [%] |
| --- | --- | --- |
| 3,3'-diindolylmethane [Crystal DIM] | absence of such | – |
| c1ccc2c(Cc3c[nH]c4ccccc34)c[nH]c2c1 [DIM, 3,3'-diindolylmethane] | – | 74 |
